Test results published in ChEMBL document CHEMBL2346648, “A series of thiazole derivatives bearing thiazolidin-4-one as non-competitive ADAMTS-5 (aggrecanase-2) inhibitors” (Bioorg Med Chem Lett, 2013).

Columns and labels:
[1] = molecular target: T1, A disintegrin and metalloproteinase with thrombospondin motifs 5 (Bos taurus) (UniProt Q9TT92); assay: Ex vivo inhibition of ADAMTS-5-mediated aggrecan degradation in IL-1-stimulated bovine cartilage explant at 30 uM
T1 sequence (whole entry): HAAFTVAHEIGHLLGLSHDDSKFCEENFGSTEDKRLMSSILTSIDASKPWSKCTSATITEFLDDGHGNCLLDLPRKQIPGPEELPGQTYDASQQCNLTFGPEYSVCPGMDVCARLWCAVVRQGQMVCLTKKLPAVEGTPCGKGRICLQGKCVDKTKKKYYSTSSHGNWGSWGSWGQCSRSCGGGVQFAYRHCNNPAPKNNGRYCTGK

[2] = molecular target: T2, A disintegrin and metalloproteinase with thrombospondin motifs 5 (Bos taurus, UniProt Q9TT92); assay: Ex vivo inhibition of ADAMTS-5-mediated aggrecan degradation in IL-1-stimulated bovine cartilage explant
T2 sequence (Q9TT92 whole entry): T1 sequence (whole entry)

[3] = Intrinsic clearance in […]; format: ADME
[4] = molecular target: Disintegrin and metalloproteinase domain-containing protein 17 (Homo sapiens, UniProt P78536); assay: Inhibition of TACE (unknown origin)
[5] = molecular target: Matrix metalloproteinase-14 (Homo sapiens, UniProt P50281); assay: Inhibition of MMP14 (unknown origin) by FRET method
[6] = molecular target: T3, A disintegrin and metalloproteinase with thrombospondin motifs 13 (Homo sapiens, UniProt Q76LX8); assay: Inhibition of ADAMTS-13 (unknown origin)
T3 sequence (Q76LX8 whole entry): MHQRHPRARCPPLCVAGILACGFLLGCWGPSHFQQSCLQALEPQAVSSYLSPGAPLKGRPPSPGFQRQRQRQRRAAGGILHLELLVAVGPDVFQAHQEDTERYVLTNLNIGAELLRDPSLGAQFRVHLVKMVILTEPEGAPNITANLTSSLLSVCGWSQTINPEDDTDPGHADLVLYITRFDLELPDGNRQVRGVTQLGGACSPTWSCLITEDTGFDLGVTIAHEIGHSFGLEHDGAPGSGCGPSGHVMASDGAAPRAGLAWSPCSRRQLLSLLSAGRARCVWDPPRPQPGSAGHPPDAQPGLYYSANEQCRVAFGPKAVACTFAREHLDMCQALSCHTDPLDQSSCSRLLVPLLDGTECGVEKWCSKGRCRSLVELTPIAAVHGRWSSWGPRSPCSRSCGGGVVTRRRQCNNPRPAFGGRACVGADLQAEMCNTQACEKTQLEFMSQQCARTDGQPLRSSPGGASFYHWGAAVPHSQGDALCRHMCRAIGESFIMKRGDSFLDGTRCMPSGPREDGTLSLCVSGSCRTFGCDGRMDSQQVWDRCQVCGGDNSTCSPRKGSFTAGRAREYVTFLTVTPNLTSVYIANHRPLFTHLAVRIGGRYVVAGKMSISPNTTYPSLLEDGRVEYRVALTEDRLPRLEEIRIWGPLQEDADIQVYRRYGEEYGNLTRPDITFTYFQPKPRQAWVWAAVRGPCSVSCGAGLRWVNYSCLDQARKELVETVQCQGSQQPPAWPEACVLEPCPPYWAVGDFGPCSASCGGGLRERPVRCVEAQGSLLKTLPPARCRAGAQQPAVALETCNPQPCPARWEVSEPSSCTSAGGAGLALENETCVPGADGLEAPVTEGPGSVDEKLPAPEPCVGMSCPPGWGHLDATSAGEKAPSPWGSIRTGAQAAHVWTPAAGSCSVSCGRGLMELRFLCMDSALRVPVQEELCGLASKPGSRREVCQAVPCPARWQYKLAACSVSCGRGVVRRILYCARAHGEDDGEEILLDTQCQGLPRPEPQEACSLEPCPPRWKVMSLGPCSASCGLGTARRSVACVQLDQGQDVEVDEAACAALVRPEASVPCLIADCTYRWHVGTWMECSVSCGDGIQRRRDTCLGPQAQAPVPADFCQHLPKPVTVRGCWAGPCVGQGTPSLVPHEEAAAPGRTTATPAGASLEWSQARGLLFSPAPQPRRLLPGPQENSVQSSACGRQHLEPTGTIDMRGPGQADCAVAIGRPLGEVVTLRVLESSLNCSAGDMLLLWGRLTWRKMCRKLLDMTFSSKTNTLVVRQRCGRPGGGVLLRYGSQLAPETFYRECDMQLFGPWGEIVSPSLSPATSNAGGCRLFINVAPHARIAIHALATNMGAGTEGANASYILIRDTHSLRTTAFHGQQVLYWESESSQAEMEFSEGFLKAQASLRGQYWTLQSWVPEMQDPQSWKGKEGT

[7] = molecular target: 72 kDa type IV collagenase (Homo sapiens, UniProt P08253); assay: Inhibition of MMP2 (unknown origin) by FRET method
[8] = molecular target: T4, A disintegrin and metalloproteinase with thrombospondin motifs 4 (Homo sapiens, UniProt O75173); assay: Inhibition of ADAMTS-4 (unknown origin) by FRET method
T4 sequence (O75173 whole entry): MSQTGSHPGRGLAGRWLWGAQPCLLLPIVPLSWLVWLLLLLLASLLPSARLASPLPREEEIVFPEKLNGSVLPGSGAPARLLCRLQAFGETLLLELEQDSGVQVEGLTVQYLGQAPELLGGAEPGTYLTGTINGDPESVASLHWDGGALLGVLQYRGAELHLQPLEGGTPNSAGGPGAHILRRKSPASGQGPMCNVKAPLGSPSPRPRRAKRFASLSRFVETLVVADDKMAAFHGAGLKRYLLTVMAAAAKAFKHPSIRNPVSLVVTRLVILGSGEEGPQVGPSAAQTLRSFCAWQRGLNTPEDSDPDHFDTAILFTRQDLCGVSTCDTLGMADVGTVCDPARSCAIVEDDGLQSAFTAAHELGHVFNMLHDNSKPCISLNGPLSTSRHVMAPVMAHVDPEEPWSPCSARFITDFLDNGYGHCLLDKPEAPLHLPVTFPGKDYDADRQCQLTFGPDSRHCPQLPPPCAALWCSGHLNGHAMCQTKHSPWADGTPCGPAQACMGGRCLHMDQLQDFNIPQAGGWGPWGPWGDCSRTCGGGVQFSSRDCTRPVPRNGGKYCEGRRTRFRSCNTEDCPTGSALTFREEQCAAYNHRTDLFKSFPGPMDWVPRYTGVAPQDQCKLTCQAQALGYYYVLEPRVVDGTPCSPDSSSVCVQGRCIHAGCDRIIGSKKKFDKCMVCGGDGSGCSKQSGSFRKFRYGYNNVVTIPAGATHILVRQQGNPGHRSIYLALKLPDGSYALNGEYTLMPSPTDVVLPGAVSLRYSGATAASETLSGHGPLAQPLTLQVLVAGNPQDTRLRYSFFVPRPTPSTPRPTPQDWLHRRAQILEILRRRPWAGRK

Sequence of 72 kDa type IV collagenase (P08253 whole entry): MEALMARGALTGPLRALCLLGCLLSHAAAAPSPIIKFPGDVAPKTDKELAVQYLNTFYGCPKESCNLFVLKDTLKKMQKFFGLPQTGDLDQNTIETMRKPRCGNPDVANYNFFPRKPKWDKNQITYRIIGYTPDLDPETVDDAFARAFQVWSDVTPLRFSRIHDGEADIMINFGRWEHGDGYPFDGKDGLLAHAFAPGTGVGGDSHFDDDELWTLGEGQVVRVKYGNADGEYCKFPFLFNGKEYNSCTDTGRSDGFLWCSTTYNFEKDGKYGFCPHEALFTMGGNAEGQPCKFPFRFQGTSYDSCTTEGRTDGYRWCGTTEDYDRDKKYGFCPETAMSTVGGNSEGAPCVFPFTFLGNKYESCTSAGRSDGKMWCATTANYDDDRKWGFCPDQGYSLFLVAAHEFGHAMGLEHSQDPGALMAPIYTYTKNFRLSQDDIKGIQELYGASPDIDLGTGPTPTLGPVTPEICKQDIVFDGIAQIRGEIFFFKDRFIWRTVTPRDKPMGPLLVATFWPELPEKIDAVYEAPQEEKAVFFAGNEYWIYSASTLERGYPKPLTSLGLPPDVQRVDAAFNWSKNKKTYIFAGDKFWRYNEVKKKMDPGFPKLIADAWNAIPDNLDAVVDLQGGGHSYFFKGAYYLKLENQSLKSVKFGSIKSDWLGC
Sequence of Disintegrin and metalloproteinase domain-containing protein 17 (P78536 whole entry, the tested form may be a part): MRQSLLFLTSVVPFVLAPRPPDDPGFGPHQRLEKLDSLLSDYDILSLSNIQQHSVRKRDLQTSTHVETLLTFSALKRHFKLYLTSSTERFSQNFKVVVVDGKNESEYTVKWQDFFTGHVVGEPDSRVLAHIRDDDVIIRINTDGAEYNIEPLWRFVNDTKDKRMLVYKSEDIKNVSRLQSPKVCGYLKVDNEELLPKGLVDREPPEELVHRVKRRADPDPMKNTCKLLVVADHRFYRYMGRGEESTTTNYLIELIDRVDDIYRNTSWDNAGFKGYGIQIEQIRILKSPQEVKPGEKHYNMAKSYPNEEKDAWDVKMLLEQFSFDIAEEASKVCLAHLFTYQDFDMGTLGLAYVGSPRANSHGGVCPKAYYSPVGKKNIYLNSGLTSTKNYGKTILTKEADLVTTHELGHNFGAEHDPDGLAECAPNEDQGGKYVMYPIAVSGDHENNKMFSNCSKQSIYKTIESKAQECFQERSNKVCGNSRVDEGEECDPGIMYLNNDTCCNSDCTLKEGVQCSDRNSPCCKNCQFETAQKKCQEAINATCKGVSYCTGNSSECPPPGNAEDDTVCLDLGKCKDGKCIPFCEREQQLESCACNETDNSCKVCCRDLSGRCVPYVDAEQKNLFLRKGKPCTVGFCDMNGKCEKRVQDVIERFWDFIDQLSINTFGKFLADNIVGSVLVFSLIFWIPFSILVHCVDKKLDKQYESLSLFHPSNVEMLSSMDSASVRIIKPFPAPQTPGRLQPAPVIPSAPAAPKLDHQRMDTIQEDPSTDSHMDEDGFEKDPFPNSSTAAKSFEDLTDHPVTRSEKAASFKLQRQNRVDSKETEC

## O=C(O)CCc1sc(/C=C2\NC(=O)CS2)nc1-c1ccccn1
[1]
  inhibition: 66%
[2]
  IC50: 22 µM
[3]
  CLint scaled: 2.7 mL/min/kg
[4]
  IC50: > 30 µM
[5]
  IC50: 24 µM
[6]
  IC50: 20 µM
[7]
  IC50: > 30 µM
[8]
  IC50: 23 µM
